Laboratory results from US20210009950A1, “ANGIOGENESIS-INDUCING METHOD USING NEURAL STEM CELL” (MEDINNO INC., priority 2018, published 2021).

How the values were obtained:
[1] = test system: Groα; format: cell-based, human
[2] = test system: MCP-1; format: cell-based, human

[Cl-].[Cl-].[Co+2] [CoCl2]
amount of Groα at 24 hours after CoCl2 treatment [1]: increased in a concentration-dependent manner
amount of Groα at CoCl2 200 μM or more compared to 100 μM [1]: reduced
amount of Groα, another 24 hours after medium replaced with DMEM/F12 [1]: highest when 100 μM CoCl2 was treated
expression of Gro [1]: increased
CoCl2 concentration giving highest Groα at 24 hours after treatment ([1]; 24 hours): 500 µM
amount of MCP-1 at 24 hours after CoCl2 treatment [2]: increased in proportion to the concentration
amount of MCP-1 at CoCl2 300 μM or more compared to 100 and 200 μM [2]: reduced
expression level of MCP-1, another 24 hours after medium replaced with DMEM/F12 [2]: highest in the case of treatment of 100 μM CoCl2
expression of MCP-1 [2]: increased
